Reference: patent US7858635B2 (priority 2005, dated 2010)

Experiments:
M4 muscarinic receptor = target: T1, M4 muscarinic receptor (Homo sapiens, UniProt P08173); assay: Functional mobilization of intracellular calcium (FLIPR, Fluo-3), M4-CHO cells; assay type: cell-based; settings: compound nos. 1-454; for Emax: 100% efficacy is the maximum response obtained with the Carbachol control, read-out: M4 Efficacy; for M4 Activity: M4-CHO cells, calcium mobilization
T1 construct: expressed in transfected cells; host or cells: CHO cells (M4-CHO, under puromycin, zeocin and blasticidin selection)
T1 sequence (P08173 1-479): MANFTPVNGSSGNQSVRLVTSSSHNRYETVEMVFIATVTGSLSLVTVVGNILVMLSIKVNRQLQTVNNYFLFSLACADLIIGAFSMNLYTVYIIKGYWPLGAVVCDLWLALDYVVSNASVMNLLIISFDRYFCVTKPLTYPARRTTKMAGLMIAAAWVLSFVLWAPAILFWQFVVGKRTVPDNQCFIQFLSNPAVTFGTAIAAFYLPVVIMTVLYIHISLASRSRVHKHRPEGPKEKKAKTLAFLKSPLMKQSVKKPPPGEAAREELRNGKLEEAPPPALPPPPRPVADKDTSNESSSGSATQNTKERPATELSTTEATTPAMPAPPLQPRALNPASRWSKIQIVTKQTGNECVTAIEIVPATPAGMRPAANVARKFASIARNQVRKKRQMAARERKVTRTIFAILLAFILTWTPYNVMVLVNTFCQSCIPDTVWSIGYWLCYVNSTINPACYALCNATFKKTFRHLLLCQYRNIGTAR
How it was run: (§1)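 Intracellular calcium was tracked by fluorescence (488/540 nm) over 60 sec after compound addition to dye-loaded CHO cells expressing the receptor. Inhibitory activity used a 15 min pre-incubation before carbachol at the subtype EC80.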

M1 muscarinic receptor = target: T2, M1 muscarinic receptor (Homo sapiens, UniProt P11229); assay: Functional mobilization of intracellular calcium (FLIPR, Fluo-3), M1-CHO cells; assay type: cell-based; settings: compound nos. 1-454; for Emax: 100% efficacy is the maximum response obtained with the Carbachol control, read-out: M1 Efficacy; for M1 Activity: M1-CHO cells, calcium mobilization
T2 construct: expressed in transfected cells; host or cells: CHO cells (M1-CHO, under zeocin and G418 selection)
T2 sequence (P11229 1-460): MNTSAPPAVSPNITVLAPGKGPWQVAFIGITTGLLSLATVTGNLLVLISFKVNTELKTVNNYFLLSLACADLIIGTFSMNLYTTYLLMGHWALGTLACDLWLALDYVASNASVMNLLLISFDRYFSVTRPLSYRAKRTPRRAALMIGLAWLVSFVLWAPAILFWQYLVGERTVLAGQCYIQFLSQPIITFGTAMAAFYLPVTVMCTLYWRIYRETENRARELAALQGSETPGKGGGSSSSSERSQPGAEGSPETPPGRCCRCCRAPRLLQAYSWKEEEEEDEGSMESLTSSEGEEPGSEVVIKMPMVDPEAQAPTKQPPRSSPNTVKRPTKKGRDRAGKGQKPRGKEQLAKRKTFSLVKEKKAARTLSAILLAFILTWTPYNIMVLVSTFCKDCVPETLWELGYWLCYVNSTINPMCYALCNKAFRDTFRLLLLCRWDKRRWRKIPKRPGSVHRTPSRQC
How it was run: as §1

Row | SMILES | Emax (M4 muscarinic receptor) | M4 Activity (M4 muscarinic receptor) | Emax (M1 muscarinic receptor) | M1 Activity (M1 muscarinic receptor)
1 | CCOC(=O)N1CCC(N2CCC3(CC2)CN(C(=O)C2CC2)c2ccc(F)cc23)CC1 [compound 136] | > 70% | +++ (activity was measured to be less than or equal to 0.1 μM) | > 85% | +++ (activity was measured to be less than or equal to 0.7 μM)
2 | CCOC(=O)N1CCC(N2CCC3(CC2)CN(C(C)=O)c2ccc(CC)cc23)CC1 [compound 137] | > 70% | + (activity was measured to be greater than or equal to 4.0 μM) | > 85% | +++ (activity was measured to be less than or equal to 0.7 μM)
3 | CC(=O)N1CC2(CCN(C3CC4CCC3C4)CC2)c2cc(C)ccc21 (stereo not shown) [compound 138] | 55 to 70% | + (activity was measured to be greater than or equal to 4.0 μM) | 65 to 85% | +++ (activity was measured to be less than or equal to 0.7 μM)
4 | CC(C)OC(=O)N1C2CCC1CC(N1CCC3(CC1)C(=O)Nc1ccccc13)C2 (stereo not shown) [compound 139] | > 70% | +++ (activity was measured to be less than or equal to 0.1 μM) | > 85% | +++ (activity was measured to be less than or equal to 0.7 μM)
5 | CC(=O)N1CC2(CCN(C3CCN(C(=O)OC4CCC4)CC3)CC2)c2cc(F)ccc21 [compound 140] | > 70% | +++ (activity was measured to be less than or equal to 0.1 μM) | > 85% | +++ (activity was measured to be less than or equal to 0.7 μM)
6 | CCOC(=O)N1CCC(N2CCC3(CC2)CN(C(C)=O)c2ccc(Cl)cc23)CC1 [compound 141] | > 70% | ++ (activity was measured to be between 0.1 μM and 4.0 μM) | > 85% | +++ (activity was measured to be less than or equal to 0.7 μM)
7 | CCOC(=O)N1CCC(N2CCC3(CC2)CN(C(=O)C(C)C)c2ccc(F)cc23)CC1 [compound 142] | > 70% | + (activity was measured to be greater than or equal to 4.0 μM) | 65 to 85% | +++ (activity was measured to be less than or equal to 0.7 μM)
8 | CC(=O)N[C@H]1CC2(CCN(C3CCCCCC3)CC2)c2ccccc21 [compound 143] | > 70% | +++ (activity was measured to be less than or equal to 0.1 μM) | 65 to 85% | +++ (activity was measured to be less than or equal to 0.7 μM)
9 | CCOC(=O)N1CCC(N2CCC3(CC2)CN(C(=O)c2cccnc2)c2ccc(F)cc23)CC1 [compound 144] | > 70% | +++ (activity was measured to be less than or equal to 0.1 μM) | > 85% | +++ (activity was measured to be less than or equal to 0.7 μM)
10 | CCOC(=O)N1CCC(N2CCC3(CC2)CN(C(=O)OC(C)C)c2ccc(F)cc23)CC1 [compound 145] | > 70% | + (activity was measured to be greater than or equal to 4.0 μM) | > 85% | +++ (activity was measured to be less than or equal to 0.7 μM)
11 | CCOC(=O)N1CCC(N2CCC3(CC2)CN(C(C)=O)c2ccc(-c4ccccc4F)cc23)CC1 [compound 146] | > 70% | +++ (activity was measured to be less than or equal to 0.1 μM) | > 85% | +++ (activity was measured to be less than or equal to 0.7 μM)
12 | CCOC(=O)N1C2CCC1CC(N1CCC3(CC1)C(=O)N(C)c1ccccc13)C2 (stereo not shown) [compound 149] | > 70% | + (activity was measured to be greater than or equal to 4.0 μM) | > 85% | +++ (activity was measured to be less than or equal to 0.7 μM)
13 | CCOC(=O)N1CCC(N2CCC3(CC2)CN(C(C)=O)c2ccc(-c4ccccc4OC)cc23)CC1 [compound 150] | > 70% | + (activity was measured to be greater than or equal to 4.0 μM) | 65 to 85% | +++ (activity was measured to be less than or equal to 0.7 μM)
